According to patent US20120245137A1 (Zalicus Pharmaceuticals Ltd., priority 2009, published 2012):
Read-outs that look alike come from different tables or passages of the source.

Legend:
Type in all cases: cell-based
Human Cav 2.2 channels = Human Cav 2.2 channels (Homo sapiens, UniProt Q00975); experiment: Fluorescent assay for CaV2.2 channels using potassium depolarization (VIPR/FLIPR); conditions: FLIPR data; for CAv2.2 IC50 Ratio closed/inact.: ratio closed/inactivated IC50
In short: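 HEK293 cells stably expressing human Cav2.2 with α2δ and β subunits plus Kir2.3 were loaded with fluo-4 and incubated 30 min at 25 °C with compound in 4, 12, 25 or 30 mM potassium buffer. Channels were opened with 70 mM potassium (final) and calcium influx was read by fluorescence (Ex 480/Em 535 nm).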

CAv1.2 = CAv1.2 (Homo sapiens, UniProt Q13936); experiment: FLIPR data, CAv1.2 channel blocking (Table 6); conditions: for CAv1.2 IC50 Ratio closed/inact.: ratio closed/inactivated IC50
T-type calcium channel [1] = target: T-type calcium channel (Homo sapiens, UniProt O95180); experiment: T-type channel blocking, FLIPR data (Table 6); conditions: for CAv3.2 IC50 Ratio closed/inact.: CAv3.2, ratio closed/inactivated IC50
Text: (§1) Another method, high-throughput spectrophotometric assay, utilizes loading of the cell lines with a fluorescent dye sensitive to intracellular calcium concentration and subsequent examination of the effects of compounds on the ability of depolarization by potassium chloride or other means to alter intracellular calcium levels.

T-type calcium channel [2] = target: T-type calcium channel (Homo sapiens, UniProt O43497); experiment: T-type channel blocking, FLIPR data (Table 6); conditions: CAv3.1
Text: as §1

[3] = closed state, read-out: CAv2.2 IC50 Closed
[4] = inactivated state, read-out: CAv2.2 IC50 Inact.
[5] = closed state, read-out: CAv1.2 IC50 Closed
[6] = inactivated state, read-out: CAv1.2 IC50 Inact.
[7] = CAv3.2, closed state, read-out: CAv3.2 IC50 Closed
[8] = CAv3.2, inactivated state, read-out: CAv3.2 IC50 Inact.

Chain of T-type calcium channel (Homo sapiens, UniProt O95180) (O95180 whole entry): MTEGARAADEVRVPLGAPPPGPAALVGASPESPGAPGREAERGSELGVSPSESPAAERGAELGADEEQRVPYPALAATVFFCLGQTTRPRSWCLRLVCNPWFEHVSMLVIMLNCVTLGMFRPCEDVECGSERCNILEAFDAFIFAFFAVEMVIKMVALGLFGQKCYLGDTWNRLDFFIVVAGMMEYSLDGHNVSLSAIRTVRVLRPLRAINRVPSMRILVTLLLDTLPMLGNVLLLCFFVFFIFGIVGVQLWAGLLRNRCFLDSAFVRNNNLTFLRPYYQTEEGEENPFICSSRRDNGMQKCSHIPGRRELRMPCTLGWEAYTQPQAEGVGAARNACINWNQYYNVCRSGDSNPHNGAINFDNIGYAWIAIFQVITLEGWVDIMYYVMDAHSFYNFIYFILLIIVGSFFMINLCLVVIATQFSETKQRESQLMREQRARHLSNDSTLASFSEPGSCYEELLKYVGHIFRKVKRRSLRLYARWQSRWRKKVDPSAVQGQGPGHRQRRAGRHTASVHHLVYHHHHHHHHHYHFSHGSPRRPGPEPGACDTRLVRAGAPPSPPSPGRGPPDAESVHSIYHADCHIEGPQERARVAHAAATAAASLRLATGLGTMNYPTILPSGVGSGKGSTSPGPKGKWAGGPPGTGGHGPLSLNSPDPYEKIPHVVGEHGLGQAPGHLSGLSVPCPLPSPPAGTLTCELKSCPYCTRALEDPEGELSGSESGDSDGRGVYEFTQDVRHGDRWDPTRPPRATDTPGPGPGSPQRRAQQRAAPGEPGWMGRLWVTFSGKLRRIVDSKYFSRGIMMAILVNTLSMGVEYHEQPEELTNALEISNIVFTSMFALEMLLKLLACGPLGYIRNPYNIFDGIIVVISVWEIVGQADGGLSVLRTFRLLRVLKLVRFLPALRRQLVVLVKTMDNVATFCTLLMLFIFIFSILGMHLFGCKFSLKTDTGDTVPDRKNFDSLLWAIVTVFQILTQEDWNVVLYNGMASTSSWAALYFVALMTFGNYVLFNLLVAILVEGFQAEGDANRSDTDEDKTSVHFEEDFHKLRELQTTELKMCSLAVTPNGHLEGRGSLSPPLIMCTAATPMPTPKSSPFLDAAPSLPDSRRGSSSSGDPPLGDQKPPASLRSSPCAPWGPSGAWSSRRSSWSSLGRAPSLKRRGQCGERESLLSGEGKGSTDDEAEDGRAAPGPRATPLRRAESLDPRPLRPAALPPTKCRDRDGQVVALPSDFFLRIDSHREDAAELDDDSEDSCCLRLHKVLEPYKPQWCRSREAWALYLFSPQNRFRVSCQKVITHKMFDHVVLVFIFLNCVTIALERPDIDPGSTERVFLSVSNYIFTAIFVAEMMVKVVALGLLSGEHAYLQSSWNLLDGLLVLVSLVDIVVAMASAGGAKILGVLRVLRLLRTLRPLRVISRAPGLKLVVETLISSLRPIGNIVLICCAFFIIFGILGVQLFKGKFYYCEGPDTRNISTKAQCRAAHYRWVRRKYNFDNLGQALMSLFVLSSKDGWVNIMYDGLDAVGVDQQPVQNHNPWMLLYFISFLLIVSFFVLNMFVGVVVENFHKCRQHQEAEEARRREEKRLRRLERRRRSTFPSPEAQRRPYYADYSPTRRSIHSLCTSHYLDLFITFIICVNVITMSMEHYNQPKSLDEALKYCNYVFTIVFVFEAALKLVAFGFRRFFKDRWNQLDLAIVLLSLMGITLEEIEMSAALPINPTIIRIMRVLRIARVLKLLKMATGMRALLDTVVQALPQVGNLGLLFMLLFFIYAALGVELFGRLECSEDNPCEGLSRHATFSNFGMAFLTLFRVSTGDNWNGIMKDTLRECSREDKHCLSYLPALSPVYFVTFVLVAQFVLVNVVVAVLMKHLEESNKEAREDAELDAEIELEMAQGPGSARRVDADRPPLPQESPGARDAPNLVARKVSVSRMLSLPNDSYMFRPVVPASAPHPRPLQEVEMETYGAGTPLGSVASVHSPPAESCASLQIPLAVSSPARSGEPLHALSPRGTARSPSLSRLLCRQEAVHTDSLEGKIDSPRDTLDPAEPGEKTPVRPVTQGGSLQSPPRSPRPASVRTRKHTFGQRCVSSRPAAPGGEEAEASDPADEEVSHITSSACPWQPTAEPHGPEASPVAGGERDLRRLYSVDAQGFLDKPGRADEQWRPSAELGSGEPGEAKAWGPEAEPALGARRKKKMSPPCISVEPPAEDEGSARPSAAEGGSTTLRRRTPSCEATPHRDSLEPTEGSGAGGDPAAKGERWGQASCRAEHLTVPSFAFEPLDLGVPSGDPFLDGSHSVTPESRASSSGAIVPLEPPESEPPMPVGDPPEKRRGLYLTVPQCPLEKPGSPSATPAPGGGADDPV
Chain of T-type calcium channel (Homo sapiens, UniProt O43497) (O43497 whole entry): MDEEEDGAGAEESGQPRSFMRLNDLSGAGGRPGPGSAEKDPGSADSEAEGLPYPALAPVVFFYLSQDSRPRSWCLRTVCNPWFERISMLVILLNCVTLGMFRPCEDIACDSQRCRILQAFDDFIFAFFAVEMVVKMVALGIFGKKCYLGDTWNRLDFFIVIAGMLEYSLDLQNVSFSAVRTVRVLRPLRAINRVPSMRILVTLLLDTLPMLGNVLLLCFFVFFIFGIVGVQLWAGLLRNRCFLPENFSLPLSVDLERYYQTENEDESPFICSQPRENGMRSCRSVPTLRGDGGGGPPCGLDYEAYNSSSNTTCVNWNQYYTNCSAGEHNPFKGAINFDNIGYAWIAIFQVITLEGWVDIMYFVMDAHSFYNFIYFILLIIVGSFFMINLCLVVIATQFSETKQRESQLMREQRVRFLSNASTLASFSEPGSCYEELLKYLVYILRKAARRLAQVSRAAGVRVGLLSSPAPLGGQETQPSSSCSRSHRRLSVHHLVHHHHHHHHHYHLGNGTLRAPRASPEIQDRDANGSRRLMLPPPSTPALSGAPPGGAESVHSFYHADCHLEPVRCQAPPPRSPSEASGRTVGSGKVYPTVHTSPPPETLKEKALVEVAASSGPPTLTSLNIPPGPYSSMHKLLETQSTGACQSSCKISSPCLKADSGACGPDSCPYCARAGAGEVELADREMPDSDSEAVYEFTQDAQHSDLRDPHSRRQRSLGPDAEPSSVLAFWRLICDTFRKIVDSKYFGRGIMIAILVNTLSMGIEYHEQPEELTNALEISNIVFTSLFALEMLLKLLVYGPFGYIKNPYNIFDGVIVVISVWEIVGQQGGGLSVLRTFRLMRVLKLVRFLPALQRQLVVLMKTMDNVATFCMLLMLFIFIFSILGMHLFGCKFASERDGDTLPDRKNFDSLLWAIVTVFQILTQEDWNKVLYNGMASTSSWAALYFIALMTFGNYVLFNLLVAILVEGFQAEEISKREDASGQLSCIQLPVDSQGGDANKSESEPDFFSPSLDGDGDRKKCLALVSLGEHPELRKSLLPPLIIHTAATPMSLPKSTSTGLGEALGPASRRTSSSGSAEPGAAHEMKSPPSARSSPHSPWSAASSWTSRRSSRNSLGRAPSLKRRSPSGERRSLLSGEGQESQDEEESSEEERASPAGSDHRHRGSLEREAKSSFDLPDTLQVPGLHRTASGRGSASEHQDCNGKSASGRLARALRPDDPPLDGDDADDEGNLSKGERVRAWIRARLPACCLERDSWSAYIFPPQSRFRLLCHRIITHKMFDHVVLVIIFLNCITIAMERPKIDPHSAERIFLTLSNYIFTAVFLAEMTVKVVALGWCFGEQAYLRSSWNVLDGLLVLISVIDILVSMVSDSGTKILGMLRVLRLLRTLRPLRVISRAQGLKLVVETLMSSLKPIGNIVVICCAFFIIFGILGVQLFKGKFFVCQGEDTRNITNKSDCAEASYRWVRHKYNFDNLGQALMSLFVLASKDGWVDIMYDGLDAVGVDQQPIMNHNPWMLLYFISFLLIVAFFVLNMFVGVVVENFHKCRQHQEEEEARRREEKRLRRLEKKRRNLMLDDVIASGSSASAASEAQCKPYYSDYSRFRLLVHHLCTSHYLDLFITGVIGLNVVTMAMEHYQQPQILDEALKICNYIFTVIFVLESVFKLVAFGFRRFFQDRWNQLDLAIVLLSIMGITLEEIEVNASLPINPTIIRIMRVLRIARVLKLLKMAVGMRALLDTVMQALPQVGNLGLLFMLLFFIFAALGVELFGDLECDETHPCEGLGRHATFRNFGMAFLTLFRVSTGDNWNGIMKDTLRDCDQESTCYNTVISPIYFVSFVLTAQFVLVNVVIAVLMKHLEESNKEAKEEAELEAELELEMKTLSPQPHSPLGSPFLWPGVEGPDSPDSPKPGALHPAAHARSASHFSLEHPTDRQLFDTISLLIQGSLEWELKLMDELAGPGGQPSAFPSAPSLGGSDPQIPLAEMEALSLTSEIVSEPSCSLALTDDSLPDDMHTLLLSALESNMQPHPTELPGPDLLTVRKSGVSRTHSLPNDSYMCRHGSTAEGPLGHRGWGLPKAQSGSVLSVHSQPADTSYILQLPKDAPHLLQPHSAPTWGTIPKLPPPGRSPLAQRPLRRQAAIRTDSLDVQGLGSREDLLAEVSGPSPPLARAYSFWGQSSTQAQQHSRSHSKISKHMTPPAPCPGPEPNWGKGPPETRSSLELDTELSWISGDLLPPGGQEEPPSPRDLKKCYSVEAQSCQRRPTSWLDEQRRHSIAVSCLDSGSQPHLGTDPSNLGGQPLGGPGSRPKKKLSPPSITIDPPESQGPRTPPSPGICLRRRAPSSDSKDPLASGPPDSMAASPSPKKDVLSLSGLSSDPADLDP

IC50 (Human Cav 2.2 channels; [3]) [µM] | IC50 (Human Cav 2.2 channels; [4]) [µM] | CAv2.2 IC50 Ratio closed/inact. (Human Cav 2.2 channels) | IC50 (T-type calcium channel [1]; [7]) [µM] | IC50 (T-type calcium channel [1]; [8]) [µM] | CAv3.2 IC50 Ratio closed/inact. (T-type calcium channel [1]) | IC50 (T-type calcium channel [2]) [µM] | Structure (SMILES) | IC50 (CAv1.2; [5]) [µM] | IC50 (CAv1.2; [6]) [µM] | CAv1.2 IC50 Ratio closed/inact. (CAv1.2)
10 | 0.8 | 12.5 | 2.96 | 2.26 | 1.3 | 2.96 | CC(C)([C@H]1C[C@@H](NS(=O)(=O)c2ccc(C(F)(F)F)cc2)C1)S(=O)(=O)c1cccc(C(F)(F)F)c1 [Compound 624] | ≥ 10 | 5.54 | 1.8
1.21 | 0.23 | 5.3 | 3.68 | 2.66 | 1.4 | 2.76 | CC(C)(C[C@H]1C[C@H](NC(=O)c2ccc(C(F)(F)F)cn2)C1)S(=O)(=O)c1cccc(C(F)(F)F)c1 [Compound 722] | 8.04 | 2.56 | 3.1
5.05 | 0.99 | 5.1 | 5.14 | 4.1 | 1.3 | 2.81 | CC(C)([C@H]1C[C@@H](Nc2ccnc(C(F)(F)F)n2)C1)S(=O)(=O)c1cc(F)cc(C(F)(F)F)c1 [Compound 648] | 8.41 | 2.28 | 3.7
10 | 2.47 | 4 | ≥ 10 | 10 | 1 | ≥ 10 | O=C(NC[C@H]1C[C@H](S(=O)(=O)c2cc(F)cc(C(F)(F)F)c2)C1)c1cnc(C(F)(F)F)nc1 [Compound 705] | ≥ 10 | ≥ 10 | 
6.49 | 0.83 | 7.8 | 4.14 | 1.39 | 3 | 1.86 | O=C(NC[C@H]1C[C@H](S(=O)(=O)c2cc(F)cc(C(F)(F)F)c2)C1)c1ccc(C(F)(F)F)cc1 [Compound 703] | 8.18 | 4.83 | 1.7
9.89 | 0.16 | 61.8 | 5.93 |  |  | 4.82 | CC(C)S(=O)(=O)c1cc(C(F)(F)F)cnc1C(=O)NC[C@H]1C[C@@H](C(C)(C)S(=O)(=O)c2cccc(C(F)(F)F)c2)C1 [Compound 681] | ≥ 10 | 2.62 | 3.8
10 | 9.14 | 1.1 |  | 10 |  | ≥ 10 | Cc1nc(S(=O)(=O)N[C@H]2C[C@H](C(C)(C)S(=O)(=O)c3cc(F)cc(C(F)(F)F)c3)C2)cn1C [Compound 611] | ≥ 10 | ≥ 10 | 
6.08 | 0.75 | 8.1 | ≥ 10 | 5.38 | 1.9 | 6.36 | CC(C)([C@H]1C[C@@H](NS(=O)(=O)c2ccc(C(F)(F)F)nc2)C1)S(=O)(=O)c1cc(F)cc(C(F)(F)F)c1 [Compound 602] | 9.77 | 3.94 | 2.5
10 | 0.65 | 15.4 | 2.16 | 2.17 | 1 | 1.59 | CC(C)([C@H]1C[C@H](NS(=O)(=O)c2ccc(C(F)(F)F)cc2Cl)C1)S(=O)(=O)c1cccc(C(F)(F)F)c1 [Compound 666] | ≥ 10 | 2.29 | 4.4
0.83 | 0.16 | 5.2 | 3.95 | 2.05 | 1.9 | 4.5 | CC(C)(C[C@H]1C[C@H](NC(=O)c2ccc(Cl)cn2)C1)S(=O)(=O)c1cccc(C(F)(F)F)c1 [Compound 720] | 7.01 | 2.45 | 2.9
5.4 | 0.87 | 6.2 | 4.79 | 2.21 | 2.2 | 4.35 | CC(C)([C@H]1C[C@H](NS(=O)(=O)c2ccc(C(F)(F)F)cc2)C1)S(=O)(=O)c1cc(F)cc(C(F)(F)F)c1 [Compound 605] | 5.29 | 1.92 | 2.8
1.85 | 0.16 | 11.6 | 4.27 | 3.79 | 1.1 | 3.87 | CC(C)([C@H]1C[C@H](NC(=O)c2ccc(C(F)(F)F)cn2)C1)S(=O)(=O)c1cccc(C(F)(F)F)c1 [Compound 676] | 7.96 | 3.25 | 2.4
2.51 | 0.92 | 2.7 | 8.53 | 3.57 | 2.4 | 4.17 | CC(C)([C@H]1C[C@H](NS(=O)(=O)c2ccc(F)c(Cl)c2)C1)S(=O)(=O)c1cc(F)cc(C(F)(F)F)c1 [Compound 606] | 5.65 | 2.76 | 2
3.54 | 0.27 | 13.1 | 2.6 | 1.68 | 1.5 | 8.16 | O=C(NC[C@H]1C[C@H](S(=O)(=O)c2cccc(C(F)(F)F)c2)C1)c1ccc(C(F)(F)F)cc1 [Compound 572] | 7.35 | 3.01 | 2.4
2.88 | 0.19 | 15.2 | 4.35 | 1.31 | 3.3 | ≥ 10 | CC(C)([C@H]1C[C@@H](NC(=O)c2ccc(OCC(F)(F)F)nc2)C1)S(=O)(=O)c1cccc(C(F)(F)F)c1 [Compound 582] | 5.77 | 2.06 | 2.8
4.83 | 1.19 | 4.1 | 2.4 | 2.74 | 0.9 | 3.13 | CC(C)([C@H]1C[C@H](Nc2ccnc(C(F)(F)F)n2)C1)S(=O)(=O)c1cc(F)cc(C(F)(F)F)c1 [Compound 649] | 6.39 | 1.81 | 3.5
10 | 0.26 | 38.5 | ≥ 10 | 10 | 1 | ≥ 10 | CC(C)([C@H]1C[C@@H](NC(=O)c2ccc(Cl)cc2S(C)(=O)=O)C1)S(=O)(=O)c1cccc(C(F)(F)F)c1 [Compound 580] | ≥ 10 | ≥ 10 | 
10 | 1.7 | 5.9 |  |  |  | ≥ 10 | CC(C)([C@H]1C[C@@H](NC(=O)c2ncc(C(F)(F)F)cc2S(C)(=O)=O)C1)S(=O)(=O)c1cc(F)cc(C(F)(F)F)c1 [Compound 584] | ≥ 10 | ≥ 10 | 
